From US4257941A, “Polycyclic nitrogen-containing compounds” (BASF Aktiengesellschaft, priority 1976, dated 1981)
Like-named read-outs stand apart in the source and are kept apart here.

How the values were obtained:
Experiment in all cases: Herbicidal action (Example 25)
Format in all cases: in vivo
Cynodon dactylon = details: preemergence
Procedure: (§1) Paraffined paper cups having a volume of 170 cm^3 were filled with a sandy loam, and the seeds of the test plants sown therein, separated by species. (The species are also listed below.)
(§2) In the first group, treatment was effected immediately after sowing and before germination of the seeds (preemergence treatment=soil treatment). Shallow sown seeds not completely covered with soil came into contact with the active ingredients. In the second group, the plants were treated postemergence (=leaf treatment) at a growth height of from 2 to 8 cm, depending on the rate of growth and shape of the species concerned. The compounds were suspended or emulsified in water and applied with the aid of fine nozzles. The soil and plants were thoroughly sprinkler irrigated for the duration of the experiment. The cups were placed in the greenhouse and kept in the temperature range 12°-25° C. or 18°-35° C., depending on the temperature requirements of the various species. After 2 to 6 weeks the action was assessed visually on a 0 to 100 scale, 0 denoting no damage and 100 denoting plants not germinated or completely destroyed.

Cyperus esculentus = details: preemergence
Procedure: as §1, §2

Ipomoea spp. = details: preemergence
Procedure: as §1, §2

Alopecurus myosuroides = details: Alopecurus myosuroides, pre-emergence, preemergence, read-out: percentage damage; for pest or weed control at 2000 g/ha: 2.0 kg/ha; for pest or weed control at 4000 g/ha: 4.0 kg/ha
Procedure: as §1, §2

Euphorbia spp. = details: preemergence
Procedure: as §1, §2

Digitaria sanguinalis = details: preemergence
Procedure: as §1, §2

Poa annua = details: Poa annua, pre-emergence, read-out: percentage damage
Procedure: as §1, §2

Setaria faberii = details: preemergence
Procedure: as §1, §2

Stellaria media = details: preemergence, 2.0 kg/ha
Procedure: as §1, §2

Panicum virgatum = details: preemergence, 2.0 kg/ha
Procedure: as §1, §2

Sinapis alba = details: pre-emergence, read-out: percentage damage; for pest or weed control at 4000 g/ha: 4.0 kg/ha
Procedure: as §1, §2

Sorghum halepense = details: preemergence
Procedure: as §1, §2

Matricaria chamomilla = details: preemergence, 2.0 kg/ha
Procedure: as §1, §2

| SMILES | percentage damage (Cynodon dactylon; 2.0 kg/ha) | percentage damage (Cynodon dactylon; 4.0 kg/ha) | percentage damage (Cyperus esculentus; 2.0 kg/ha) | percentage damage (Cyperus esculentus; 4.0 kg/ha) | percentage damage (Ipomoea spp.; 2.0 kg/ha) | pest or weed control at 2000 g/ha (Alopecurus myosuroides) | pest or weed control at 4000 g/ha (Alopecurus myosuroides) | pest or weed control at 2000 g/ha (Poa annua; preemergence, 2.0 kg/ha) | percentage damage (Setaria faberii; 2.0 kg/ha) | percentage damage (Setaria faberii; 4.0 kg/ha) | percentage damage (Stellaria media) | pest or weed control at 2000 g/ha (Sinapis alba; preemergence, 2.0 kg/ha) | percentage damage (Sorghum halepense; 2.0 kg/ha) | percentage damage (Sorghum halepense; 4.0 kg/ha) | other results |
| --- | --- | --- | --- | --- | --- | --- | --- | --- | --- | --- | --- | --- | --- | --- | --- |
| c1ccc(CN2N=NC3C4CC(C5N=NC45)C32)cc1 (stereo not drawn) [drawing 412] | 80 percentage damage | 100 percentage damage | 55 percentage damage | 55 percentage damage | 0 percentage damage | 55% | 70% |  |  |  |  |  |  |  | percentage damage (Ipomoea spp.; 4.0 kg/ha): 10 percentage damage |
| Cc1ccc(N2N=NC3C4CC(C5N=NC45)C32)cc1 (stereo not drawn) [drawing 413] | 83 percentage damage | 100 percentage damage | 0 percentage damage | 0 percentage damage | 78 percentage damage | 40% | 40% |  |  |  |  |  |  |  | percentage damage (Euphorbia spp.; 2.0 kg/ha): 90 percentage damage; percentage damage (Euphorbia spp.; 4.0 kg/ha): 100 percentage damage; percentage damage (Digitaria sanguinalis; 2.0 kg/ha): 100 percentage damage; percentage damage (Digitaria sanguinalis; 4.0 kg/ha): 100 percentage damage; percentage damage (Ipomoea spp.; 4.0 kg/ha): 75 percentage damage |
| O=S(=O)(c1ccccc1)N1C2C3CC(C4N=NC34)C21 (stereo not drawn) [drawing 414] | 90 percentage damage | 100 percentage damage | 0 percentage damage | 0 percentage damage | 78 percentage damage | 80% | 80% |  |  |  |  |  |  |  | percentage damage (Euphorbia spp.; 2.0 kg/ha): 65 percentage damage; percentage damage (Euphorbia spp.; 4.0 kg/ha): 90 percentage damage; percentage damage (Digitaria sanguinalis; 2.0 kg/ha): 68 percentage damage; percentage damage (Digitaria sanguinalis; 4.0 kg/ha): 90 percentage damage |
| c1ccc(N2N=NC3C4CC(C5N=NC45)C32)cc1 (stereo not drawn) [drawing 415] |  |  |  |  |  |  |  | 95% | 97 percentage damage | 100 percentage damage | 100 percentage damage | 99% | 75 percentage damage | 100 percentage damage | percentage damage (Panicum virgatum): 100 percentage damage; pest or weed control at 4000 g/ha (Sinapis alba; preemergence): 100%; percentage damage (Matricaria chamomilla): 95 percentage damage |
| c1ccc(N2C3C4CC(C5N=NC45)C32)cc1 (stereo not drawn) [drawing 416] |  |  |  |  |  |  |  |  | 59 percentage damage | 65 percentage damage | 100 percentage damage |  | 74 percentage damage | 78 percentage damage | pest or weed control at 2000 g/ha (Poa annua): 57%; percentage damage (Panicum virgatum): 100 percentage damage; pest or weed control at 2000 g/ha (Sinapis alba): 74%; percentage damage (Matricaria chamomilla): 95 percentage damage |
| c1ccc(CN2N=NC3C4CC(C5N=NC45)C32)cc1 (stereo not drawn) [drawing 417] |  |  |  |  |  |  |  |  | 80 percentage damage | 90 percentage damage |  | 80% | 90 percentage damage | 90 percentage damage | pest or weed control at 4000 g/ha (Sinapis alba; preemergence): 95% |
| Cc1ccc(N2N=NC3C4CC(C5N=NC45)C32)cc1 (stereo not drawn) [drawing 418] |  |  |  |  |  |  |  | 65% | 55 percentage damage | 100 percentage damage | 13 percentage damage | 98% | 55 percentage damage | 55 percentage damage |  |
| O=S(=O)(c1ccccc1)N1C2C3CC(C4N=NC34)C21 (stereo not drawn) [drawing 419] |  |  |  |  |  |  |  | 70% | 40 percentage damage | 100 percentage damage |  | 90% | 53 percentage damage | 50 percentage damage |  |
